Measurements taken from patent publication US5608091A, “Quinizarin compound, method for production thereof, and use therefor” (Nippon Shokubai Co., Ltd., priority 1993, dated 1997).

Tests used:
[1] = Stability in storage of thermal transfer recorded images; settings: 50° C., 50 hours
Protocol: The recorded images obtained as described above were left standing in an atmosphere kept at 50° C. for 50 hours and, after the standing, were examined to determine the presence or absence of change caused on the images owing to the standing.
(§1) Ink compositions were prepared, transfer sheets produced, and transfer recording carried out by following the procedure of Example 89 while using the dye shown in Table 11 instead. The recorded images were tested for lightfastness and then for stability in storage in the same manner as in Example 89.
as §1, with “dyes” for “dye”, “12” for “11”

Color tone of the dye = type: physicochemical; settings: Tables 1-9
[2] = Visible absorption spectrum (λmax, ε); type: physicochemical; settings: in chloroform; for ε: at λ max, in M-1 cm-1 (unit assumed)
[3] = Solubility in toluene and methyl ethyl ketone, three-point scale; type: physicochemical
Description: In these tables, the solubility is rated on the three-point scale, wherein Δ stands for a solubility of less than 1% by weight, .largecircle. for a solubility in the approximate range of 1 to 3% by weight, and .circleincircle. for a solubility of not less than 3% by weight.

CCCCCCCCOc1c(F)c2c(c(F)c1Nc1ccc(C(=O)OCCCC)cc1)C(=O)c1c(O)ccc(O)c1C2=O [(36)]
Stability in storage [1]: Good | Color tone (Color tone of the dye): Magenta | λ max [2]: 534 nm | ε [2]: 12700 | Solubility in methyl ethyl ketone [3]: .circleincircle. (a solubility of not less than 3% by weight) | Solubility in toluene [3]: .circleincircle. (a solubility of not less than 3% by weight)

CCCCCCCCOc1c(F)c2c(c(F)c1Nc1ccc([N+](=O)[O-])cc1)C(=O)c1c(O)ccc(O)c1C2=O [(41)]
Stability in storage [1]: Good | Color tone (Color tone of the dye): Magenta | λ max [2]: 524 nm | ε [2]: 13200 | Solubility in methyl ethyl ketone [3]: .circleincircle. (a solubility of not less than 3% by weight) | Solubility in toluene [3]: .circleincircle. (a solubility of not less than 3% by weight)

CCCCCCCCOc1c(F)c2c(c(F)c1Nc1ccc(C#N)cc1)C(=O)c1c(O)ccc(O)c1C2=O [(45)]
Stability in storage [1]: Good | Color tone (Color tone of the dye): Magenta | λ max [2]: 524 nm | ε [2]: 15400 | Solubility in methyl ethyl ketone [3]: .circleincircle. (a solubility of not less than 3% by weight) | Solubility in toluene [3]: .circleincircle. (a solubility of not less than 3% by weight)

CCCCCCCCOc1c(F)c2c(c(F)c1Nc1c(CC)cccc1CC)C(=O)c1c(O)ccc(O)c1C2=O [(51)]
Stability in storage [1]: Good | Color tone (Color tone of the dye): Purple | λ max [2]: 563 nm | ε [2]: 11400 | Solubility in methyl ethyl ketone [3]: .circleincircle. (a solubility of not less than 3% by weight) | Solubility in toluene [3]: .circleincircle. (a solubility of not less than 3% by weight)

CCc1cccc(CC)c1Nc1c(F)c2c(c(F)c1Nc1c(CC)cccc1CC)C(=O)c1c(O)ccc(O)c1C2=O [(137)]
Stability in storage [1]: Good | Color tone (Color tone of the dye): Cyan | λ max [2]: 657 nm | ε [2]: 3000 | Solubility in methyl ethyl ketone [3]: .largecircle. (a solubility in the approximate range of 1 to 3% by weight) | Solubility in toluene [3]: .circleincircle. (a solubility of not less than 3% by weight)

CC(C)c1cccc(C(C)C)c1Nc1c(F)c2c(c(F)c1Nc1c(C(C)C)cccc1C(C)C)C(=O)c1c(O)ccc(O)c1C2=O [(139)]
Stability in storage [1]: Good | Color tone (Color tone of the dye): Cyan | λ max [2]: 660 nm | ε [2]: 26000 | Solubility in methyl ethyl ketone [3]: .largecircle. (a solubility in the approximate range of 1 to 3% by weight) | Solubility in toluene [3]: .circleincircle. (a solubility of not less than 3% by weight)
